Assay results taken from article PMC8146289, “Tissue Distribution of Oleocanthal and Its Metabolites after Oral Ingestion in Rats” (Antioxidants, 2021).

Key:
[1] = set-up: method as in doi:10.1016/j.foodchem.2009.07.017; details: cited from earlier work
[2] = Tissue distribution of OLC and its metabolites in rats after oral gavage of OLC-enriched refined olive oil (LC-ESI-LTQ-Orbitrap-MS); format: in vivo, Male Sprague Dawley rats; details: for plasma and tissues in which the compound was detected: liver, kidney, spleen, lungs, heart, brain, thyroid, skin, 1, 2, 4.5 h after oral ROO with OLC; for decrease of OLC concentration in the intestine / decrease of OLC concentration in the stomach: relative to the maximum at 1 h; for decrease of OLC concentration in the stomach: stomach samples
Method: The studies were conducted following a protocol approved by the Animal Experimentation Ethics Committee of the University of Barcelona, Spain (trial no. CEEA 124/16) and Generalitat de Catalunya (no. 6435). Male Sprague Dawley rats (body weight 249 ± 8 g) were purchased from Envigo RMS Spain S.L. (Sant Feliu de Codines, Barcelona, Spain). The animals were acclimatized in animal housing in an air-conditioned room at 22 ± 2 °C under a 12 h/12 h cycle of light and darkness and given free access to a commercial diet (Teklad 2014, Envigo RMS Spain S.L.) and water for at least 10 days before the study. The rats were fasted for over 12 h before the experiments but were allowed free access to water.
Before the distribution experiment, the ROO (vehicle) was analyzed by LC-ESI-LTQ-Orbitrap-MS to make sure it was free of phenolic compounds. The liquid–liquid extraction of phenolic compounds of ROO was performed following the previously described procedures. The chromatographic and mass spectrometer conditions were the same as those used for the identification of metabolites (Section 2.3). After verifying that the ROO was free of phenols, OLC was added to obtain a final concentration of 0.3 mg/mL. The OLC concentration was chosen while taking into account both the OLC concentration in commercial EVOO (~300 mg/kg) and the daily ingestion of EVOO recommended by the European Food Safety Authority of at least 5 mg of hydroxytyrosol and its derivatives per 20 g of olive oil.
The rats were divided into four groups—a control group (no administration) and three dosed groups—to study the distribution of OLC at three different time points: 1, 2 and 4.5 h post-administration. On treatment day, the rats received the ROO containing OLC by oral gavage (2.5 mL/300 g body weight). The volume for gavage administration was established following a good practice guide for substance administration and was lower than the maximum volume of lipid vehicles per kg of rat body weight that prevented elevated plasma corticosterone levels.
The rats were anesthetized with isoflurane (IsoFloR, Veterinaria Esteve, Barcelona, Spain) and euthanized by exsanguination via cardiac puncture at 1, 2 or 4.5 h after ROO ingestion. The control group was maintained under fasting conditions without olive oil ingestion and then similarly euthanized. The blood was collected in EDTA tubes, and plasma samples were obtained by centrifugation (3000× g for 10 min at 4 °C) and stored at −80 °C until analysis. Different tissues and organs (heart, liver, spleen, lungs, kidney, brain, thyroid, stomach, small intestine and skin) were removed from the rats and placed in pre-weighed tubes. The small intestine samples consisted of a pool of duodenum, jejunum and ileum segments, but the main region used was the jejunum. The procedure was to locate the plica duodenocolica and, from there up to about 5 cm of the intestine before reaching the cecum, to remove it from the animal. The collected tissues were washed with physiological serum at 37 °C and placed between absorbent paper to remove the rest of the serum. In the case of the intestine, the luminal contents were first removed by applying pressure with the index finger and thumb, and then the lumen was washed by perfusing with the physiological serum at 37 °C. It was then placed between absorbent paper to remove the remains of the washings. In order to avoid compound oxidation, the collected tissues were kept on ice at all times. Finally, the samples were weighed and stored at −80 °C until analysis. For each group, four animals were used.
The tissues were homogenized with a small tissue disruptor (T 10 basic ULTRA-TURRAX®, IKA laboratory technology, Staufen Germany) in a 1:1 ratio (w/v) with water:ACN (1:1 (v/v) with 0.1% ascorbic acid). The samples were sonicated for 5 min in an ice bath and shaken for 1 min (Vortex-Genie 2). Each homogenate was centrifuged for 10 min (11,000× g at 4 °C). […]

[3] = set-up: method as in PMID 33348608; details: in vivo, rats; cited from earlier work
[4] = plasma, stomach, small intestine

Row | Structure (SMILES) | concentration in the aqueous phase (partition between the oily and aqueous phase) ([1]; digestion of dietary lipids, lipid–water emulsion) | stability in the gastric phase ([1]; in vitro digestion study) | detection in plasma ([2]; plasma) | plasma and tissues in which the compound was detected [2, 4] | time of Cmax (highest concentration among the three sample times 1, 2, 4.5 h) ([2]; small intestine) | decrease of OLC concentration in the intestine ([2]; small intestine, 2 h post-ingestion) | decrease of OLC concentration in the intestine ([2]; small intestine, 4.5 h post-ingestion) | time of Cmax (highest concentration among the three sample times 1, 2, 4.5 h) ([2]; stomach) | decrease of OLC concentration in the stomach ([2]; 2 h post-ingestion, ROO with 0.3 mg/mL OLC by oral gavage 2.5 mL/300 g body weight) | decrease of OLC concentration in the stomach ([2]; 4.5 h post-ingestion) | intestinal absorption [3]
1 | C/C=C(/C=O)[C@@H](CC=O)CC(=O)OCCc1ccc(O)cc1 [OLC, oleocanthal] | 68.7% | good OLC stability in the gastric phase | not found in the plasma | only detected in the stomach and small intestine samples | 1 h | 16% | 33% | 1 h | 36% | 74% | 16%
2 | OCCc1ccc(O)cc1 [TY, tyrosol] |  |  |  | only detected in the stomach and intestinal samples | 1 h |  |  | 1 h |  |  | 
